Experimental data reported in the NIST ThermoML archive (doi:10.1021/je060271a).
Where “and” joins values, the source holds several entries; their conditions need not be identical. Identical values can stand only once.

Details: Liquid, Vibrating tube method

CCCCCC(=O)OCC(COC(=O)CCCCC)(COC(=O)CCCCC)COC(=O)CCCCC [pentaerythritol tetrahexanoate]
Details	mass density
283.14 K, 6785.3 kPa	1008.1 kg/m3
283.14 K, 6787.6 kPa	1008 kg/m3 and 1008.2 kg/m3
283.14 K, 6787.7 kPa	1008.1 kg/m3
283.14 K, 6787.9 kPa	1008.1 kg/m3 and 1008 kg/m3
283.14 K, 30862 kPa	1021 kg/m3
283.14 K, 30898 kPa	1021 kg/m3
283.14 K, 30915 kPa	1021 kg/m3
283.14 K, 32175 kPa	1021.8 kg/m3
283.14 K, 32194 kPa	1021.7 kg/m3
283.14 K, 32218 kPa	1021.7 kg/m3
283.14 K, 32238 kPa	1021.8 kg/m3
283.14 K, 32258 kPa	1021.8 kg/m3
283.14 K, 32282 kPa	1021.8 kg/m3
283.14 K, 32303 kPa	1021.7 kg/m3
283.14 K, 32324 kPa	1021.8 kg/m3
283.15 K, 90.7 kPa	1004 kg/m3
283.15 K, 90.8 kPa	1004.1 kg/m3
283.15 K, 90.9 kPa	1004.2 kg/m3
283.15 K, 96 kPa	1004.2 kg/m3
283.15 K, 96.1 kPa	1004.2 kg/m3
283.15 K, 96.4 kPa	1004.1 kg/m3 and 1004.2 kg/m3
283.15 K, 96.6 kPa	1004.2 kg/m3
283.15 K, 96.7 kPa	1004.2 kg/m3
283.15 K, 96.9 kPa	1004.2 kg/m3
283.15 K, 97.3 kPa	1004.1 kg/m3
283.15 K, 97.4 kPa	1004.1 kg/m3 and 1004.2 kg/m3
283.15 K, 97.6 kPa	1004 kg/m3 and 1004.2 kg/m3
283.15 K, 99.3 kPa	1004.2 kg/m3
283.15 K, 101.4 kPa	1004.2 kg/m3
283.15 K, 101.6 kPa	1004.2 kg/m3
283.15 K, 102.1 kPa	1004.2 kg/m3
283.15 K, 102.2 kPa	1004.1 kg/m3 and 1004.2 kg/m3
283.15 K, 106.2 kPa	1004.2 kg/m3
283.15 K, 106.9 kPa	1004.1 kg/m3
283.15 K, 107 kPa	1004.2 kg/m3
283.15 K, 107.4 kPa	1004 kg/m3
283.15 K, 107.5 kPa	1004.1 kg/m3
283.15 K, 107.7 kPa	1004.2 kg/m3
283.15 K, 107.9 kPa	1004.2 kg/m3 and 1004.3 kg/m3
283.15 K, 111.3 kPa	1004.1 kg/m3
283.15 K, 111.5 kPa	1004.2 kg/m3
283.15 K, 111.7 kPa	1004.3 kg/m3
283.15 K, 112 kPa	1004.2 kg/m3
283.15 K, 112.3 kPa	1004.1 kg/m3
283.15 K, 112.4 kPa	1004.2 kg/m3
283.15 K, 112.5 kPa	1004.1 kg/m3
283.15 K, 112.7 kPa	1004.2 kg/m3 and 1004.1 kg/m3
283.15 K, 113 kPa	1004.1 kg/m3 and 1004.2 kg/m3
283.15 K, 113.2 kPa	1004.3 kg/m3 and 1004.1 kg/m3
283.15 K, 113.4 kPa	1004.2 kg/m3
283.15 K, 113.5 kPa	1004.1 kg/m3
283.15 K, 113.9 kPa	1004.2 kg/m3
283.15 K, 114.1 kPa	1004.2 kg/m3
283.15 K, 114.4 kPa	1004.1 kg/m3
283.15 K, 114.6 kPa	1004.1 kg/m3
283.15 K, 114.8 kPa	1004.3 kg/m3
283.15 K, 114.9 kPa	1004.2 kg/m3 and 1004.1 kg/m3
283.15 K, 115.1 kPa	1004.2 kg/m3
283.15 K, 115.4 kPa	1004.2 kg/m3
283.15 K, 115.5 kPa	1004.2 kg/m3
283.15 K, 115.8 kPa	1004.2 kg/m3
283.15 K, 116 kPa	1004.2 kg/m3
283.15 K, 116.3 kPa	1004.2 kg/m3
283.15 K, 116.5 kPa	1004.1 kg/m3
283.15 K, 116.7 kPa	1004.2 kg/m3
283.15 K, 116.8 kPa	1004.2 kg/m3
283.15 K, 117.2 kPa	1004.1 kg/m3
283.15 K, 117.3 kPa	1004.2 kg/m3 and 1004.3 kg/m3
283.15 K, 117.5 kPa	1004.2 kg/m3
283.15 K, 117.9 kPa	1004.2 kg/m3 and 1004.3 kg/m3
283.15 K, 118 kPa	1004.1 kg/m3
283.15 K, 118.2 kPa	1004.2 kg/m3
283.15 K, 118.4 kPa	1004.2 kg/m3
283.15 K, 118.7 kPa	1004.2 kg/m3
283.15 K, 118.9 kPa	1004.2 kg/m3
283.15 K, 119.1 kPa	1004.4 kg/m3 and 1004.2 kg/m3
283.15 K, 119.3 kPa	1004 kg/m3
283.15 K, 119.6 kPa	1004.2 kg/m3
283.15 K, 119.8 kPa	1004.1 kg/m3
283.15 K, 119.9 kPa	1004.3 kg/m3 and 1004.2 kg/m3
283.15 K, 120.1 kPa	1004.1 kg/m3
283.15 K, 121.3 kPa	1004.2 kg/m3
283.15 K, 121.7 kPa	1004.2 kg/m3 and 1004.1 kg/m3
283.15 K, 122 kPa	1004.3 kg/m3
283.15 K, 122.4 kPa	1004.1 kg/m3
283.15 K, 122.5 kPa	1004.3 kg/m3
283.15 K, 122.9 kPa	1004.1 kg/m3
283.15 K, 123 kPa	1004.2 kg/m3
283.15 K, 123.2 kPa	1004.2 kg/m3
283.15 K, 123.6 kPa	1004.3 kg/m3 and 1004.2 kg/m3
283.15 K, 123.7 kPa	1004.1 kg/m3
283.15 K, 123.9 kPa	1004.2 kg/m3 and 1004.1 kg/m3
283.15 K, 124.3 kPa	1004.2 kg/m3
283.15 K, 124.6 kPa	1004 kg/m3
283.15 K, 124.9 kPa	1004.1 kg/m3
283.15 K, 125 kPa	1004.2 kg/m3
283.15 K, 125.1 kPa	1004.1 kg/m3
283.15 K, 125.3 kPa	1004.2 kg/m3
283.15 K, 125.8 kPa	1004 kg/m3
283.15 K, 126 kPa	1004.3 kg/m3
283.15 K, 126.2 kPa	1004.2 kg/m3 and 1004.1 kg/m3
283.15 K, 127.9 kPa	1004.2 kg/m3
283.15 K, 128.1 kPa	1004.3 kg/m3
283.15 K, 128.4 kPa	1004.3 kg/m3
283.15 K, 134 kPa	1004.1 kg/m3
283.15 K, 134.1 kPa	1004.2 kg/m3
283.15 K, 134.3 kPa	1004.1 kg/m3
283.15 K, 134.5 kPa	1004.3 kg/m3
283.15 K, 135 kPa	1004.2 kg/m3
283.15 K, 135.2 kPa	1004.2 kg/m3
283.15 K, 135.3 kPa	1004.1 kg/m3
283.15 K, 136 kPa	1004.2 kg/m3
283.15 K, 136.4 kPa	1004.2 kg/m3
283.15 K, 136.6 kPa	1004.2 kg/m3 and 1004.1 kg/m3
283.15 K, 136.7 kPa	1004.3 kg/m3
283.15 K, 136.9 kPa	1004.1 kg/m3
283.15 K, 137.4 kPa	1004.2 kg/m3
283.15 K, 137.6 kPa	1004.3 kg/m3 and 1004.2 kg/m3
283.15 K, 137.9 kPa	1004.3 kg/m3
283.15 K, 138.1 kPa	1004.2 kg/m3
283.15 K, 138.8 kPa	1004.2 kg/m3
283.15 K, 139 kPa	1004.1 kg/m3 and 1004.3 kg/m3
283.15 K, 139.2 kPa	1004.3 kg/m3 and 1004.2 kg/m3
283.15 K, 139.3 kPa	1004.2 kg/m3
283.15 K, 139.7 kPa	1004.2 kg/m3 and 1004.1 kg/m3 and 1004.3 kg/m3
283.15 K, 140.4 kPa	1004.3 kg/m3
283.15 K, 140.6 kPa	1004.3 kg/m3
283.15 K, 140.7 kPa	1004.2 kg/m3
283.15 K, 141.1 kPa	1004.2 kg/m3
283.15 K, 141.4 kPa	1004.2 kg/m3
283.15 K, 141.6 kPa	1004.2 kg/m3
283.15 K, 142.1 kPa	1004.3 kg/m3
283.15 K, 142.5 kPa	1004.2 kg/m3
283.15 K, 143 kPa	1004.2 kg/m3 and 1004.1 kg/m3
283.15 K, 143.2 kPa	1004.2 kg/m3
283.15 K, 144 kPa	1004.2 kg/m3 and 1004.1 kg/m3
283.15 K, 144.2 kPa	1004.3 kg/m3
283.15 K, 144.4 kPa	1004.1 kg/m3
283.15 K, 144.7 kPa	1004.1 kg/m3
283.15 K, 145.4 kPa	1004.2 kg/m3
283.15 K, 145.9 kPa	1004.3 kg/m3
283.15 K, 146.3 kPa	1004.2 kg/m3
283.15 K, 146.6 kPa	1004.2 kg/m3
283.15 K, 147.3 kPa	1004.2 kg/m3
